From patent US5166214A, “Use of imidazoles for the treatment of atherosclerosis” (priority 1990, dated 1992)

What was measured:
[1] = test system: murine macrophage-like cell line J774.A1; test: Inhibition of cholesterol esterification in mammalian cells (macrophage assay); assay type: cell-based; conditions: J774.A1 macrophages loaded with ac-LDL, 14C-oleic acid; read-out: Cholesterol Esterification IC50
Protocol: B. Assay of the Inhibition of Cholesterol Esterification in Mammalian Cells
The esterification of cholesterol was determined in the murine macrophage-like cell line J774.A1. Cells were seeded in 35 mm wells at a density of 300,000 cells per well in 2 mls of Dulbecco's Eagle Medium (DMEM) supplemented with 10% fetal bovine serum (FBS). Cells were incubated at 37° C. in an atmosphere of 5% CO2 and 93% humidity. After 24 hours the media was changed to 0.68 mls 10% FBS-DMEM containing 34 μg of acetylated human low density lipoprotein (ac-LDL) to increase the intracellular concentration of cholesterol and promote esterification. At 41 hours, various inhibitors were added to the cells in DMSO (10 μl/ml maximum). At 43 hours, the cells were pulsed with 0.1 mM ^14 C-oleic acid (10,000 dpm/nmol) complexed with BSA (bovine serum albumin) to follow cholesterol ester formation. The experiment was terminated at 45 hours by washing the monolayers 3 times with 3 ml of Tris-buffered saline at 4° C. The lipids were extracted by incubating the monolayers with 1.5 ml of hexane:isopropanol (3:2, v/v) for 30 min. under gentle agitation. During this period, 10,000 dpm 3H-cholesteryl linoleate and 10 μg of cholesteryl oleate were added as an internal standard and carrier respectively. The organic solvent was removed and the cells were washed with an additional 1.0 ml of hexane: isopropanol which was combined with the original extract. The cells were allowed to dry overnight, digested with 1.5 ml of 0.2N sodium hydroxide for 1 hour and an aliquot of the solubilized protein used for protein determination using the Lowry method. The organic extract was taken to dryness, the residue resuspended in 100 μl of chloroform and the lipids separated on silica gel impregnated glass fiber plates using a hexane:diethylether:acetic acid (170:30:1, v/v/v) solvent system. Individual lipids were visualized with iodine and the cholesteryl ester spot cut out and transferred to scintillation vials to determine the amount of radioactivity. The conversion of oleic acid to cholesteryl ester in the control averaged 0.54 […] and was increased upon the addition of ac-LDL to about 10.69±0.69 […]. […] It should be noted that many of the intermediates had inhibitory activity in the in vitro ACAT assay and in the macrophage assay.

[2] = biological target: T1, Acyl-CoA: Cholesterol Acyltransferase (ACAT) (Rattus norvegicus, UniProt Q7TQM4); test: Inhibition of acyl-CoA: cholesterol acyltransferase (ACAT) in hepatic microsomes (in vitro); assay type: biochemical, rat (male Sprague Dawley); conditions: rat hepatic microsomes, 75 μM 14C-oleoyl-CoA, pH 7.4, 37° C.; read-out: In Vitro ACAT IC50
T1 construct: Microsomes were obtained by differential centrifugation; from tissue; host or cells: liver microsomes of male Sprague Dawley rats
T1 sequence (Q7TQM4 1-524): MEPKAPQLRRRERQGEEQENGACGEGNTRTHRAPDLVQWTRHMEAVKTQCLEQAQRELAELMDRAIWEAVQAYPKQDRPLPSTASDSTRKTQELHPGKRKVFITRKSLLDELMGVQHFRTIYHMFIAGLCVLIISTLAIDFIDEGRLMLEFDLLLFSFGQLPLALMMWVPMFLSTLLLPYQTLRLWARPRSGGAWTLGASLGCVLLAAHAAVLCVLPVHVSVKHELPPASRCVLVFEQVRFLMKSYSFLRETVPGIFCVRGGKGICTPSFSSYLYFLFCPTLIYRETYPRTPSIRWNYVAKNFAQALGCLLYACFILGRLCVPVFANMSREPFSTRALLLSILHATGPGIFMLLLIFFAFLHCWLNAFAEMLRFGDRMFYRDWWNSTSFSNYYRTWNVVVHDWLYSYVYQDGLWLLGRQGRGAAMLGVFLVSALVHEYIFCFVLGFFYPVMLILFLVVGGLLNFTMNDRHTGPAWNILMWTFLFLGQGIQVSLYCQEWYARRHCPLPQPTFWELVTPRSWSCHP
Protocol: A. Assay of the Inhibition of Acyl-CoA: Cholesterol Acyltransferase (ACAT) in Hepatic Microsomes
The ability of the compounds to inhibit ACAT, the enzyme responsible for the intracellular synthesis of cholesteryl esters, was tested as follows. Male Sprague Dawley rats weighing 150-300 g, were fed rat chow ad libitum. The animals were fasted for twenty-four hours prior to being sacrificed by decapitation. The livers were perfused in situ with 50 ml of cold 0.25M sucrose, excised, and homogenized in three volumes of 0.1M phosphate buffer, pH 7.4, that contained 0.5 mM EDTA (ethylenediaminetetraacetic acid), 1.0 mM glutathione, 0.25M sucrose and […]. Microsomes were obtained by differential centrifugation; the supernatant from an initial spin at 15,000×g for 15 minutes was centrifuged at 105,000×g for 1 hour to pellet the microsomes. The microsomes were suspended in homogenization buffer, reisolated by centrifugation, and stored at -70° C. Microsomes were used within one month of preparation.
The control assay in a final volume of 200 μl consisted of 200 μg of microsomal protein, 75 μM ^14 C-oleoyl-CoA (10,000 dpm/nmol) in 0.1M phosphate, pH 7.4, that contained 1 mM glutathione. Compounds were added in 5 μl of DMSO (dimethyl sulfoxide) and additional controls were run with DMSO only. All components, except the oleoyl-CoA, were preincubated for 15 min. at 37° C. prior to the initiation of the reaction by the addition of oleoyl-CoA. The assay was terminated after 10 min by the addition of 4 ml of chloroform:methanol (2:1, v/v). 20,000 dpm of ^3 H-cholesteryl oleate and 10 μg of unlabeled cholesteryl oleate and oleic acid were added as an internal standard and carriers, respectively. After allowing 10 min. for lipid extraction, the samples were centrifuged at 1,000×g for 10 min. to separate the solvent layers. The chloroform layer containing the neutral lipids was spotted onto a Baker SI250-Pa silica gel TLC plate and the plate developed using a hexane: diethyl ether: acetic acid (170:30:1 v/v/v) mobile phase. The lipids were visualized by their interaction with iodine vapor and the cholesteryl ester spot was scraped into a scintillation vial and counted.

With `CCCCCCCN(CCCCCSc1nc(-c2ccccc2OC)c(-c2ccccc2OC)[nH]1)C(=O)Nc1ccc(F)cc1F` [Example 196, N-[5-[4,5-bis(2-methoxyphenyl)-1H-imidazol-2-ylthio]pentyl]-N'-(2,4-difluorophenyl)-N-heptylurea] the IC50 [1] was 1.4 µM and the IC50 [2] was 0.3 µM.
Compound `CCCCCCCN(CCCCCSc1nc(-c2ccc(N(C)C)cc2)c(-c2ccc(N(C)C)cc2)[nH]1)C(=O)Nc1ccc(F)cc1F` [Example 197, N-[5-[4,5-bis[4-(dimethylamino)phenyl]-1H-imidazol-2-ylthio]pentyl]-N'-(2,4-difluorophenyl)-N-heptylurea] has an IC50 [1] of 0.1 µM and an IC50 [2] of 0.119 µM.
For `CCCCCCCN(CCCCCSc1nc(-c2ccc(N(C)C)cc2)c(-c2ccc(N(C)C)cc2)[nH]1)C(=O)Nc1ccc(F)cc1F` [Example 198], the IC50 [1] was 0.06 µM and the IC50 [2] was 0.04 µM.
`CCCCCCCN(CCCCCSc1nc(C2CCCCC2)c(C2CCCCC2)[nH]1)C(=O)Nc1ccc(F)cc1F` [Example 199, N-[5-(4,5-dicyclohexyl-1H-imidazol-2-ylthio)pentyl]-N'-(2,4-difluorophenyl)-N-heptylurea] gave an IC50 [1] of 0.6 µM and an IC50 [2] of 0.02 µM.
In the case of `CCCCCCCN(CCCCCSc1nc(-c2ccccc2)c(-c2ccc(N(C)C)cc2)[nH]1)C(=O)Nc1ccc(F)cc1F` [Example 200], the IC50 [1] is reported as 0.8 µM and the IC50 [2] is reported as 0.71 µM.
Compound `CCCCCCCN(CCCCCSc1nc(-c2ccco2)c(-c2ccco2)[nH]1)C(=O)Nc1ccc(F)cc1F` [Example 201] has an IC50 [1] of 0.5 µM and an IC50 [2] of 0.2 µM.
For `CCCCCCCN(CCCCCSc1nc(-c2ccc(OC)cc2)c(-c2ccc(OC)cc2)[nH]1)C(=O)NC(C)C` [Example 202, N-[5-[4,5-bis(4-methoxyphenyl)-1H-imidazol-2-ylthio]pentyl]-N-heptyl-N'-(1-methylethyl)urea], the IC50 [1] was 0.004 µM and the IC50 [2] was 0.22 µM.
`COc1ccc(-c2nc(SCCCCCN(C)C(=O)Nc3ccc(F)cc3F)[nH]c2-c2ccc(OC)cc2)cc1` [Example 204] was tested, and the IC50 [1] was 0.4 µM and the IC50 [2] was 0.5 µM.
With `CCCCCCCN(CCCCCSc1nc(-c2ccc(N(C)C)cc2)c(-c2ccc(N(C)C)cc2)[nH]1)C(=O)NC(C)C` [Example 205, N-[5-[4,5-bis[4-(dimethylamino)phenyl]-1H-imidazol-2-ylthio]pentyl]-N-heptyl-N'-(1-methylethyl)urea] the IC50 [1] was 0.003 µM and the IC50 [2] was 0.074 µM.
For `CCCCCCCCNC(=O)N(CCCCCSc1nc(-c2ccccc2)c(-c2ccccc2)[nH]1)c1ccccc1` [Example 207, N-[5-(4,5-diphenyl-1H-imidazol-2-ylthio)pentyl]-N'-octyl-N-phenylurea], the IC50 [1] was 0.6 µM and the IC50 [2] was 0.009 µM.
For `CCCCCCCN(CCCCCSc1nc(-c2ccc(O)cc2)c(-c2ccc(O)cc2)[nH]1)C(=O)Nc1ccc(F)cc1F` [Example 209, N-[5-[4,5-bis(4-hydroxyphenyl)-1H-imidazol-2-ylthio]pentyl]-N'-(2,4-difluorophenyl)-N-heptylurea], the IC50 [1] was 4.8 µM and the IC50 [2] was 1.4 µM.
Compound `CCCCCCCN(CCCCCSc1nc(C(C)C)c(C(C)C)[nH]1)C(=O)NC(C)C` [Example 210] has an IC50 [1] of 0.8 µM and an IC50 [2] of 0.017 µM.
`CCCCCCCN(CCCCCSc1nc2c([nH]1)-c1ccccc1OCOc1ccccc1-2)C(=O)Nc1ccc(F)cc1F` [Example 211, N-[5-(1H,9H-dibenz[4,5:8,9][1,3]dioxonino[6,7-d]imidazol-2-ylthio)-pentyl]-N'-(2,4-difluorophenyl)-N-heptylurea] gave an IC50 [1] of 0.7 µM and an IC50 [2] of 0.032 µM.
With `CCCCCCCN(CCCCCSc1nc2c([nH]1)-c1ccccc1Oc1ccccc1-2)C(=O)Nc1ccc(F)cc1F` [Example 212, N-[5-(1H-dibenz[2,3:6,7]oxedino[4,5-d]imidazol-2-ylthio)pentyl]-N'-(2,4-difluorophenyl)-N-heptylurea] the IC50 [1] was 1.7 µM and the IC50 [2] was 0.06 µM.
`CCCCCCCN(CCCCCSc1nc(-c2ccc(C(F)(F)F)cc2)c(-c2ccc(C(F)(F)F)cc2)[nH]1)C(=O)Nc1ccc(F)cc1F` [Example 258] was tested, and the IC50 [1] was 25 µM and the IC50 [2] was 40 µM.
`CCCCCCCN(CCCCCSc1nc(-c2ccccc2)c(-c2ccccc2)[nH]1)C(=S)NCCC` [Example 299, N-[5-(4,5-diphenyl-1H-imidazol-2-ylthio)pentyl]-N-heptyl-N'-propylthiourea] gave an IC50 [1] of 1.2 µM and an IC50 [2] of 0.14 µM.
Compound `CCCCCCCN(CCCCCSc1nc(-c2ccccc2)c(-c2ccccc2)[nH]1)C(=S)Nc1cccc(F)c1` [Example 300, N-[5-(4,5-diphenyl-1H-imidazol-2-ylthio)pentyl]-N'-(3-fluorophenyl)-N-heptylthiourea] has an IC50 [1] of 0.9 µM and an IC50 [2] of 0.13 µM.
Work on `CCCCCCCN(CCCCCSc1nc(-c2ccccc2)c(-c2ccccc2)[nH]1)C(=O)CCC` [Example 341, N-[5-(4,5-diphenyl-1H-imidazol-2-ylthio)pentyl]-N-heptylbutanamide] yielded an IC50 [1] of 0.1 µM and an IC50 [2] of 0.003 µM.
Compound `CCCCCCCN(CCCCCSc1nc(-c2ccccc2)c(-c2ccccc2)[nH]1)C(=O)CCCC` [Example 342, N-[5-(4,5-diphenyl-1H-imidazol-2-ylthio)pentyl]-N-heptylpentanamide] has an IC50 [1] of 1.6 µM and an IC50 [2] of 0.03 µM.
With `CCCCCCCN(CCCCCSc1nc(C(C)C)c(C(C)C)[nH]1)C(=O)CC1CCCCC1` [Example 347, N-[5-[4,5-bis(1-methylethyl)-1H-imidazol-2-ylthio]pentyl]-N-heptylcyclohexaneacetamide] the IC50 [1] was 0.3 µM and the IC50 [2] was 0.03 µM.
`CCCCCCCN(CCCCCSc1nc(-c2ccc(OC)cc2)c(-c2ccc(OC)cc2)[nH]1)C(=O)CCC` [Example 348, N-[5-[4,5-bis(4-methoxyphenyl)-1H-imidazol-2-ylthio]pentyl]-N-heptylbutanamide] gave an IC50 [1] of 0.2 µM and an IC50 [2] of 0.7 µM.
In the case of `CCCCCCCN(CCCCCSc1nc(-c2ccc(OC)cc2)c(-c2ccc(OC)cc2)[nH]1)C(=O)Cc1ccc(Cl)c(Cl)c1` [Example 349], the IC50 [1] is reported as 0.09 µM and the IC50 [2] is reported as 0.2 µM.
`CCCCCCCN(CCCCCSc1nc(-c2ccc(OC)cc2)c(-c2ccc(OC)cc2)[nH]1)C(=O)Cc1c(F)c(F)c(F)c(F)c1F` [Example 350] showed an IC50 [1] of 0.05 µM and an IC50 [2] of 0.605 µM.
